From BigSolDB 2.1

CN1CC(O)c2cc(N=NC(N)=O)c(O)cc21 (centres undefined)
solubility (mole fraction)
Conditions | 278.15 K | 283.15 K | 288.15 K | 293.15 K | 298.15 K | 303.15 K | 308.15 K | 313.15 K | 318.15 K
in DMF | 0.00095 | 0.00115 | 0.00129 | 0.0015 | 0.00177 | 0.00202 | 0.00231 | 0.00277 | 0.00335
in DMSO | 0.00619 | 0.0073 | 0.00863 | 0.01 | 0.0113 | 0.0129 | 0.0146 | 0.0159 | 0.0174
in ethanol | 1.8e-05 | 2.15e-05 | 2.42e-05 | 3.02e-05 | 3.67e-05 | 4.29e-05 | 5.24e-05 | 6.97e-05 | 8.54e-05
in methanol | 3.56e-05 | 4.38e-05 | 5.31e-05 | 6.89e-05 | 8.35e-05 | 9.97e-05 | 0.00012 | 0.000147 | 0.000173
in n-propanol | 1.75e-05 | 2.05e-05 | 2.41e-05 | 2.77e-05 | 3.18e-05 | 3.66e-05 | 4.5e-05 | 5.92e-05 | 7.31e-05
in water | 2.81e-05 | 3.26e-05 | 3.78e-05 | 4.4e-05 | 5.15e-05 | 6.03e-05 | 6.87e-05 | 7.98e-05 | 9.69e-05
